Holding throughout (assay): Bliss excess, mean over the matrix (fraction); higher = more synergy
For assay [1], the system named is VMRC-RCZ (Kidney Carcinoma). The method in brief: (§1)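 Bliss excess equals the observed combination effect minus the expected value EA + EB − EA·EB, where EA and EB are the effects of each agent alone. Combination Emax is the second-highest inhibition within the matrix. Inhibition was scaled from CellTiter-Glo 2.0 luminescence, with 0 set by vehicle wells and 1 by blank wells, after 72 hours of two-drug dosing of cells plated in 1536-well plates.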

The subject of assay [2] is NCI-H3122 (Lung Adenocarcinoma). The method in brief:
as §1

The subject of assay [3] is COR-L279 (Small Cell Lung Carcinoma). The method in brief:
as §1

Another assay deals with M059J (Glioblastoma). The method in brief:
as §1

Assay [4] deals with ST486 (Burkitt's Lymphoma). The method, boiled down:
as §1

For assay [5], the system named is NCI-H929 (Plasma Cell Myeloma). The method in brief: as §1
Assay [6] relates to DMS-114 (Small Cell Lung Carcinoma). The method, boiled down:
as §1

In a further assay the test system is NCI-H2731 (Mesothelioma). The method in brief:
as §1

Assay [7] concerns T-T (Esophageal Squamous Cell Carcinoma). The method, boiled down:
as §1

Assay [8] relates to MN-60 (B-Lymphoblastic Leukemia). The method in brief:
as §1

Assay [9] relates to MOG-G-CCM (Low Grade Glioma). The method in brief: as §1
The test system of assay [10] is NCCIT (Other Solid Carcinomas). The method, boiled down:
as §1

Assay [11] relates to CW-2 (Colorectal Carcinoma). The method in brief: as §1
For assay [12], the system named is KP-3 (Pancreatic Carcinoma). The method, boiled down: as §1
The next assay has as its system SJSA-1 (Osteosarcoma). The method in brief: as §1
Assay [13] concerns SK-GT-4 (Esophageal Adenocarcinoma). The method in brief: as §1
In assay [14] the test system is KYSE-270 (Esophageal Squamous Cell Carcinoma). The method, boiled down:
as §1

The subject of assay [15] is NCI-H520 (Squamous Cell Lung Carcinoma). The method, boiled down: as §1
The subject of assay [16] is NCI-H526 (Small Cell Lung Carcinoma). The method in brief:
as §1

Assay [17] deals with KU812 (Chronic Myelogenous Leukemia). The method, boiled down: as §1

This passage reports Bliss excess results from the supplement of paper PMC11061612.

Consider `O=C(c1cc(Cc2n[nH]c(=O)c3ccccc23)ccc1F)N1CCN(C(=O)C2CC2)CC1` [Olaparib] + Cc1c2c(nn1C)CSCc1cc(n(C)n1)CSc1cc(c3ccccc3c1)OCCCc1c(C(=O)O)n(C)c3c-2c(Cl)ccc13 [AZD5991] (first compound max 10 µM, 7x7, partner max 1 µM), for which the Bliss excess was -0.049 in assay [1]; -0.0156 in [2]; 0.0494 in [3]; 0.0008 with M059J (Glioblastoma); 0.0593 in [4]; -0.0215 in [5]. Moreover, the Bliss excess in assay [6] was 0.0106; with NCI-H2731 (Mesothelioma), -0.0452; in assay [7], -0.0217; in assay [8] it was -0.0496; in assay [9], -0.0519; in assay [10], 0.0176. The Bliss excess in assay [11] is -0.03; in assay [12], -0.0576; in the assay with SJSA-1 (Osteosarcoma) it was -0.0401; in [13], -0.061; in [14] it was -0.0303; in [15], -0.0289. Besides, the Bliss excess in assay [16] is 0.0251; in [17], -0.0111.

Turning to `N#Cc1cnc(Nc2cc(NC[C@H]3CNCCO3)c(C(F)(F)F)cn2)cn1` [SRA737] + C=CCn1c(=O)c2cnc(Nc3ccc(N4CCN(C)CC4)cc3)nc2n1-c1cccc(C(C)(C)O)n1 [AZD1775] (first compound max 10 µM, partner max 1 µM), the Bliss excess in assay [1] is 0.0259; in [2] it was 0.0718; in assay [3], 0.116; in the assay with M059J (Glioblastoma) it was 0.073; in assay [4], 0.0356; in [5], 0.0295. The Bliss excess was -0.0231 in assay [6]; 0.0007 in the assay on NCI-H2731 (Mesothelioma); 0.0665 in assay [7]; -0.0125 in assay [8]; 0.0229 in assay [9]; 0.0855 in [10]. In addition, the Bliss excess in assay [11] was 0.0162; in [12], 0.0086; with SJSA-1 (Osteosarcoma), 0.0091; in assay [13] it was 0.003; in assay [14] it was 0.136; in assay [15], 0.055. Further, the Bliss excess in assay [16] is 0.0145; in assay [17], 0.0668.

Turning to `N#Cc1cnc(Nc2cc(NC[C@H]3CNCCO3)c(C(F)(F)F)cn2)cn1` [SRA737] + CCc1c2c(nc3ccc(O)cc13)-c1cc3c(c(=O)n1C2)COC(=O)[C@]3(O)CC [SN-38] (first compound max 10 µM, 7x7, partner max 0.3 µM), the Bliss excess in [1] was -0.0348; in assay [2] it was -0.0454; in assay [3], -0.0153; in the assay on M059J (Glioblastoma), -0.0326; in assay [4] it was -0.0232; in assay [5] it was -0.0781. The Bliss excess in assay [6] was -0.0589; in the assay with NCI-H2731 (Mesothelioma), -0.005; in assay [7], 0.0451; in assay [8], -0.0495; in assay [9], -0.0105; in [10] it was 0.0294. In addition, the Bliss excess in assay [11] is -0.0853; in assay [12], -0.0089; in the assay with SJSA-1 (Osteosarcoma), -0.0751; in assay [13] it was -0.0544; in [14], -0.0265; in assay [15], -0.0063. Moreover, the Bliss excess is -0.0427 in assay [16] and -0.0939 in assay [17].

For `Cc1nc(-c2cn3c(n2)-c2ccc(-c4cnn(C(C)(C)C(N)=O)c4)cc2OCC3)n(C(C)C)n1` [Taselisib] + O=C(Nc1ccc2[nH]nc(-c3ccncc3)c2c1)[C@@H]1CCN(CC(=O)N2CCN(c3ccc(-c4ncccn4)cc3)CC2)C1 [SCH772984] (first compound max 10 µM, 7x7, partner max 5 µM), the Bliss excess in [1] came to 0.0004; in [2], 0.126; in assay [3], 0.0833; in the assay on M059J (Glioblastoma), 0.0027; in [4] it was 0.0569; in assay [5] it was 0.0344. The Bliss excess in assay [6] was 0.005; in the assay with NCI-H2731 (Mesothelioma) it was 0.0323; in [7] it was 0.133; in [8], -0.026; in assay [9] it was -0.0727; in assay [10], -0.032. Moreover, the Bliss excess was 0.0458 in assay [11]; 0.0368 in [12]; 0.0019 with SJSA-1 (Osteosarcoma); 0.0428 in assay [13]; 0.0577 in assay [14]; 0.0461 in [15]. The results for the Bliss excess in assay [16] and in assay [17] were 0.0117 and 0.0569, respectively.
